# Test results from US20110152362A1, “METHODS OF TREATING EPILEPTOGENESIS AND EPILEPSY” (priority 2004, published 2011).
# “And” between values parts separate entries of the source, which are not always exact repeats. Equal entries are not always repeated.
# Assays:
# [1] = tested on: rats subjected to li-pilo SE; assay: Example 2: quantification of cell densities 14 days after li-pilo SE;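 also: Thionine-stained 20 µm brain sections, neurons with cell bodies above 10 µm counted, value is the mean of 12 fields per structure from three adjacent sections, both sides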
# Experimental: All rats received lithium chloride (3 meq/kg, i.p., Sigma, St Louis, Mo., U.S.A.) and about 20 h later, all animals received also methylscopolamine bromide (1 mg/kg, s.c., Sigma) that was administered to limit the peripheral effects of the convulsant. […] The effects of increasing doses of TC were studied in 5 groups of rats. […] The control group received vehicle instead of pilocarpine and TC.
# For neuronal counting, animals were deeply anesthetized with 1.8 g/kg pentobarbital (Dolethal®, Vetoquinol, Lure, France). Brains were then removed and frozen. Serial 20 μm slices were cut in a cryostat, air-dried during several days before thionine staining. […] The grid of counting was placed on a well defined area of the cerebral structure of interest and counting was carried out with a microscopic enlargement of 200- or 400-fold defined for each single cerebral structure. Cell counts were performed twice on each side of three adjacent sections for each region by a single observer unaware of the animal's treatment. The number of cells obtained in the 12 counted fields in each cerebral structure was averaged. This procedure was used to minimize the potential errors that could result from double counting leading to overestimation of cell numbers. […] Counts involved only neurons with cell bodies larger than 10 μm. Cells with small cell bodies were considered as glial cells and were not counted.
# For neuronal damage and epileptogenesis, statistical analysis between groups was performed by means of a one-way analysis of variance followed by a post-hoc Dunnett or Fisher test using the Statistica software.
# [2] = tested on: rats subjected to Li-pilo induced SE; assay: Example 1: Timm staining, mossy fiber sprouting in hippocampus; format: in vivo, rat; conditions: pilo-DZP rats
# Experimental: At 2 months after the onset of spontaneous recurrent seizures, mossy fiber sprouting was examined on rats in the chronic period exposed to the test compound or DZP and in 3 saline-saline rats. Animals were deeply anaesthetized and perfused transcardially with saline followed by 100 ml of 1.15% (w/v) Na2S in 0.1 M phosphate buffer, and 100 ml of 4% (v/v) formaldehyde in 0.1 M phosphate buffer. Brains were removed from skull, post-fixed in 4% formaldehyde during 3-5 h and 40 μm sections were cut on a sliding vibratome and mounted on gelatin-coated slides.
# The following day, sections were developed in the dark in a 26° C. solution of 50% (w/v) arabic gum (160 ml), sodium citrate buffer (30 ml), 5.7% (w/v) hydroquinone (80 ml) and 10% (w/v) silver nitrate (2.5 ml) during 40-45 min. The sections were then rinsed with tap water at 40° C. during at least 45 min, rinsed rapidly with distilled water and allowed to dry. They were dehydrated in ethanol and coverslipped.
# Mossy fiber sprouting was evaluated according to criteria previously described in dorsal hippocampus (Cavazos et al., 1991, J Neurosci 11:2795-2803.), which are follows: 0—no granules between the tips and crest of the DG; 1—sparse granules in the supragranular region in a patchy distribution between the tips and crest of DG; 2—more numerous granules in a continuous distribution between the tips and crest of DG; 3—prominent granules in a continuous pattern between tips and crest, with occasional patches of confluent granules between tips and crest; 4—prominent granules that form a confluent dense laminar band between tips and crest and 5—confluent dense laminar band of granules that extends into the inner molecular layer.
# [3] = tested on: rats subjected to Li-pilo induced SE; assay: Example 1: mortality induced by lithium-pilocarpine status epilepticus; format: in vivo, rat; conditions: pilo-DZP, 2 mg/kg i.m. 1 h after onset of SE
# Experimental: (§1) The bilateral EEG cortical activity was recorded during the whole duration of SE and behavioral changes were noted.
# (§2) The effects of increasing doses of the Test Compound were studied on 3 groups of rats. The animals of the first group received 10 mg/kg of the test compound, i.p., 1 h after the onset of SE (pilo-TC10) while the animals of groups 2 and 3 received 30 and 60 mg/kg of the Test Compound (pilo-TC30 and pilo-TC60), respectively.
# (§3) The control group received saline instead of pilocarpine and the Test Compound (saline-saline). […] Pilo-DZP received a second injection of 1 mg/kg DZP on the day of SE at about 10 h after the first one. Thereafter, Pilo-DZP and saline-saline rats received twice daily an equivalent volume of saline.
# [4] = tested on: rats subjected to li-pilo SE; assay: Example 2: latency to and frequency of spontaneous seizures (video recording); format: in vivo, rat; conditions: DZP group, 2.5 mg/kg i.m.; 2.5 mg/kg
# Experimental: The effects of DZP and the 4 doses of TC on epileptogenesis were investigated by daily video recording of the animals for 10 h per day. Video recording was performed for 4 weeks during which the occurrence of the first seizure was noted as well as the total number of seizures over the whole period. Animals were then taken off the video recording system and kept for 4 additional weeks in our animal facilities before they were sacrificed after a total period of 8 weeks of epilepsy.
# [5] = tested on: rats subjected to Li-pilo induced SE; assay: Example 1: latency to and frequency of spontaneous recurrent seizures (SRS), lithium-pilocarpine model; format: in vivo, rat
# Experimental: as §1, §2, §3
# The effects of the test compound on the EEG and on the latency to occurrence of SRS were investigated by daily video recording of the animals for 10 h per day and the recording of the electrographic activity twice a week for 8 h.
# To calculate the frequency of SRS in pilocarpine-exposed rats, the seizure severity and distinguished stage III (clonic seizures of facial muscles and anterior limbs) and stage IV-V seizures (rearing and falling) was measured. The frequency of stage III SRS per week in pilo-DZP and pilo-test compound rats was variable amongst the groups. It was low, constant in the pilo-DZP and pilo-TC60 (with early SRS onset) groups during the first 3 weeks and had disappeared during the 4th week in the pilo-DZP group. […] The frequency of more severe stage IV-V SRS was highest during the first week in most groups, except pilo-TC30 and TC60 with late seizure onset where the SRS frequency was constant over the whole 4 weeks in TC30 group and over the first two weeks in the pilo-TC60 group with late SRS onset in which no stage IV-V seizures where no seizures recorded after the second week.
# [6] = tested on: rats subjected to li-pilo SE; assay: Example 2: mortality over the first 48 h after Li-pilo SE; format: in vivo, rat; design: concentration or dose not given beside the values; conditions: DZP
# [7] = tested on: rats subjected to Li-pilo induced SE; assay: Example 1: quantification of cell densities in hippocampus, thalamus and cortex after Li-pilo SE; format: in vivo, rat; conditions: pilo-DZP rats
# Experimental: as §2, §3
# Quantification of cell densities was performed at 6 days after SE on 8 pilo-DZP, 8 pilo-TC10, 7 pilo-TC30, 7 pilo-TC60, and 6 saline-saline rats. […] Counts involved only cells larger than 10 μm, smaller ones being considered as glial cells.
# For the comparison of the characteristics of SE in pilo-saline and pilo-test compound animals, a non-paired Student's t-test was used. The comparison between the number of rats seizing in both groups was performed by means of a Chi square test. For neuronal damage, statistical analysis between groups was performed using ANOVA followed by a Fisher's test for multiple comparisons using the Statview software (Fisher R A, 1946a, Statistical Methods for Research Workers (10th edition) Oliver & Boyd, Edinburgh; Fisher R A, 1946b, The Design of Experiments (4th edition) Oliver & Boyd, Edinburgh)
# [8] = pilo-DZP (DZP 2.5 mg/kg i.m.), 14 days after li-pilo SE
smiles,measurement,setting,value
"CN1C(=O)CN=C(c2ccccc2)c2cc(Cl)ccc21 [DZP, diazepam, reference compound]","neurons surviving in entorhinal cortex, dorsal and ventral","[1]; DZP group, 14 days after SE",27-81%
same,"damage vs control, dorsal entorhinal cortex layer II","[1]; DZP rats, 14 days after SE",18%
same,"damage vs control, dorsal entorhinal cortex layers III-IV","[1]; DZP rats, 14 days after SE",24%
same,"damage vs control, ventral entorhinal cortex layer II","[1]; DZP rats, 14 days after SE",22% and 19%
same,"damage vs control, ventral entorhinal cortex layers III/IV","[1]; DZP rats, 14 days after SE",74% and 73%
same,"neuronal damage, amygdala central nucleus","[1]; DZP rats, 14 days after SE",no neuronal damage
same,"neuronal drop out vs control, CA1 pyramidal cell layer","[1]; DZP rats, 14 days after SE",85%
same,"neuronal drop out vs control, amygdala basolateral nucleus","[1]; DZP rats, 14 days after SE",73%
same,"neuronal drop out vs control, amygdala medial dorsal anterior nucleus","[1]; DZP rats, 14 days after SE",53%
same,"neuronal drop out vs control, thalamus central medial nucleus","[1]; DZP rats, 14 days after SE",34%
same,"neuronal drop out vs control, thalamus dorsolateral medial dorsal nucleus","[1]; DZP rats, 14 days after SE",40%
same,"neuronal drop out vs control, thalamus mediodorsal central nucleus","[1]; DZP rats, 14 days after SE",18%
same,"neuronal drop out vs control, thalamus mediodorsal lateral nucleus","[1]; DZP rats, 14 days after SE",24%
same,"neuronal loss vs control, CA3 region","[1]; DZP rats, 14 days after SE",40%
same,"neuronal loss vs control, amygdala medial ventral posterior nucleus","[1]; DZP rats, 14 days after SE",38%
same,"neuronal loss vs control, hilus of dentate gyrus","[1]; DZP rats, 14 days after SE",65% and 66%
same,"neuronal loss vs control, piriform cortex dorsal layer II","[1]; DZP rats, 14 days after SE",66%
same,"neuronal loss vs control, piriform cortex layer III","[1]; DZP rats, 14 days after SE",94%
same,"neuronal loss vs control, piriform cortex ventral layer II","[1]; DZP rats, 14 days after SE",89%
same,"neuronal loss vs control, thalamus mediodorsal nucleus","[1]; DZP rats, 14 days after SE",49%
same,"neuronal loss vs control, ventral lateral division of the dorsolateral nucleus","[1]; DZP rats, 14 days after SE",90%
same,number of neuronal cell bodies: Amygdala Basolateral,[1]; [8],12.8 ± 5.3
same,"number of neuronal cell bodies: Amygdala Medial, dorsal anterior",[1]; [8],40.0 ± 2.5
same,"number of neuronal cell bodies: Amygdala Medial, ventral posterior",[1]; [8],21.8 ± 2.4
same,"number of neuronal cell bodies: Cerebral cortex Entorhinal, layer II, dorsal",[1]; [8],23.5 ± 0.7
same,"number of neuronal cell bodies: Cerebral cortex Entorhinal, layer II, ventral",[1]; [8],21.7 ± 1.3
same,"number of neuronal cell bodies: Cerebral cortex Entorhinal, layer III/IV, dorsal",[1]; [8],22.3 ± 0.5
same,"number of neuronal cell bodies: Cerebral cortex Entorhinal, layer III/IV, ventral",[1]; [8],7.7 ± 2.3
same,"number of neuronal cell bodies: Cerebral cortex Piriform, layer II, dorsal",[1]; [8],12.6 ± 4.2
same,"number of neuronal cell bodies: Cerebral cortex Piriform, layer II, ventral",[1]; [8],3.6 ± 0.7
same,"number of neuronal cell bodies: Cerebral cortex Piriform, layer III",[1]; [8],1.2 ± 1.2
same,number of neuronal cell bodies: Hippocampus CA1 area,[1]; [8],10.9 ± 1.9
same,number of neuronal cell bodies: Hippocampus CA3 area,[1]; [8],31.3 ± 2.9
same,number of neuronal cell bodies: Hippocampus Hilus,[1]; [8],33.5 ± 3.0
same,number of neuronal cell bodies: Thalamus Central medial,[1]; [8],74.2 ± 7.4
same,"number of neuronal cell bodies: Thalamus Dorsolateral, medial, dorsal",[1]; [8],61 ± 6.3
same,"number of neuronal cell bodies: Thalamus Dorsolateral, ventral lateral",[1]; [8],9.7 ± 2.5
same,number of neuronal cell bodies: Thalamus Mediodorsal central,[1]; [8],26.3 ± 1.8
same,number of neuronal cell bodies: Thalamus Mediodorsal lateral,[1]; [8],19.6 ± 0.8
same,number of neuronal cell bodies: Thalamus Mediodorsal medial,[1]; [8],16.4 ± 1.9
same,"Timm score in the upper blade of the dentate gyrus, mean",[2],2.8±0.8
same,mortality during the first 48 h after SE,[3],23%
same,Latency to the first spontaneous seizure,[4],15.5 ± 2.3 days and 15.5 ± 2.34 days
same,frequency of stage IV-V SRS,"[5]; first week, pilo-DZP group",11.3 SRS per week
same,latency to SRS,[5]; pilo-DZP rats,18.2 ± 6.9 days
same,mortality over the first 48 h after SE,[6]; group for cell counting at 14 days,36%
same,mortality over the first 48 h after SE,[6]; group for latency to SRS and late cell counting,7%
same,"cell loss vs saline-saline, CA1 pyramidal cell layer",[7],70% and 75%
same,"cell loss vs saline-saline, CA3a",[7],54%
same,"cell loss vs saline-saline, CA3b",[7],31%
same,"cell loss vs saline-saline, hilus of dentate gyrus",[7],73%
same,"cell loss vs saline-saline, lateral thalamic nucleus",[7],91%
same,"cell loss vs saline-saline, mediodorsal thalamic nucleus",[7],56%
same,"cell loss vs saline-saline, piriform cortex layer II",[7],53%
same,"cell loss vs saline-saline, ventral entorhinal cortex layers III-IV",[7],44%
same,"cell loss, piriform cortex layers III-IV",[7],total
same,"damage vs saline-saline, dorsal entorhinal cortex layer II",[7],9%
same,"damage vs saline-saline, dorsal entorhinal cortex layers III-IV",[7],15%
same,"damage, ventral entorhinal cortex layer II",[7],totally preserved
